Test results as given in PubChem BioAssay (NCI).
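Assay format: 96-well plates, 48-hour exposure. GI50 marks 50% less growth. The concentration for full growth arrest is given as TGI.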

Experiments:
Experiment in all cases: growth of human tumour cells (NCI), 48 h
HCC-2998 colon = test system: HCC-2998 colon
HL-60(TB) leukemia = test system: HL-60(TB) leukemia
IGROV1 ovarian = test system: IGROV1 ovarian
K-562 leukemia = test system: K-562 leukemia
MOLT-4 leukemia = test system: MOLT-4 leukemia
OVCAR-8 ovarian = test system: OVCAR-8 ovarian
RPMI-8226 leukemia = test system: RPMI-8226 leukemia
SK-MEL-2 melanoma = test system: SK-MEL-2 melanoma
SN12C renal = test system: SN12C renal
SNB-75 CNS = test system: SNB-75 CNS

| Compound | TGI (HCC-2998 colon) [µM] | TGI (HL-60(TB) leukemia) [µM] | TGI (IGROV1 ovarian) [µM] | TGI (K-562 leukemia) [µM] | TGI (MOLT-4 leukemia) [µM] | TGI (OVCAR-8 ovarian) [µM] | TGI (RPMI-8226 leukemia) [µM] | TGI (SK-MEL-2 melanoma) [µM] | TGI (SN12C renal) [µM] | TGI (SNB-75 CNS) [µM] | GI50 (HCC-2998 colon) [µM] | GI50 (HL-60(TB) leukemia) [µM] | GI50 (IGROV1 ovarian) [µM] | GI50 (K-562 leukemia) [µM] | GI50 (MOLT-4 leukemia) [µM] | GI50 (OVCAR-8 ovarian) [µM] | GI50 (RPMI-8226 leukemia) [µM] | GI50 (SK-MEL-2 melanoma) [µM] | GI50 (SN12C renal) [µM] | GI50 (SNB-75 CNS) [µM] |
| --- | --- | --- | --- | --- | --- | --- | --- | --- | --- | --- | --- | --- | --- | --- | --- | --- | --- | --- | --- | --- |
| CCN1CCC(O)(c2ccccc2)C(C(=O)c2ccccc2)C1 (configuration not stated) | > 100 | 46.8 | > 100 | > 66 | > 60.2 | 63.7 | 33.4 | > 100 | > 31.6 | > 100 | – | – | – | – | – | – | – | – | – | – |
| CN(C)c1ccc(N=C(C#N)c2nc(N)nc(N3CCOCC3)n2)cc1 | > 100 | > 100 | > 100 | > 100 | > 100 | > 100 | > 100 | > 100 | 98.5 | 49.4 | > 100 | 70.4 | 34 | 62.1 | 60.8 | 38.1 | 74.3 | > 100 | 28.8 | 18.7 |
| O=C(/C=C/c1cccnc1)/C=C/c1cccnc1 | 2.19 | – | 1.82 | – | – | 12.8 | 0.252 | 3.58 | 12.7 | 7.33 | 0.846 | 0.707 | 0.463 | 0.383 | 0.31 | 3.56 | 0.0732 | 1.43 | 2.99 | 1.8 |
| COc1cccc(C2C3=C(COC3=O)N(CCO)c3cc4c(cc32)CCC4)c1 (configuration not stated) | 1.31 | 0.314 | 0.0692 | 8.81 | 1.94 | > 17.1 | 11.6 | 0.239 | > 32.6 | 0.397 | 0.0795 | 0.111 | 0.0169 | 0.0279 | 0.162 | 0.098 | 0.127 | 0.0255 | 0.269 | 0.0236 |
| O=C1/C(=C\c2ccccc2)CN(C(=O)c2ccccc2F)C/C1=C\c1ccccc1 | 3.66 | 7.36 | 4.46 | > 20.7 | 8.51 | 7.9 | 0.72 | 8.3 | 3.48 | 14.5 | 2.11 | 2.78 | 2.08 | 0.992 | 2.93 | 2.67 | 0.125 | 2.95 | 1.77 | 3.5 |
| COc1ccccc1NS(=O)(=O)c1cc(C(C)(C)C)ccc1OCCOc1ccc(C(C)(C)C)cc1S(=O)(=O)Nc1ccccc1OC | > 100 | > 100 | > 100 | > 100 | > 100 | > 100 | > 100 | > 100 | > 100 | > 100 | – | – | – | – | – | – | – | – | – | – |
| COc1ccc(C=O)c(N(C)C(=O)C(C)(C)C)c1 | > 100 | > 100 | > 100 | > 100 | > 100 | > 100 | > 100 | > 100 | > 100 | > 100 | – | – | – | – | – | – | – | – | – | – |
| CC(=O)NNc1nc(C)c(C(/C=C/c2ccc3c(c2)OCO3)=N/NC(=O)c2ccncc2)s1 | > 100 | > 100 | > 100 | > 100 | > 100 | > 100 | > 100 | > 100 | > 100 | > 100 | – | – | – | – | – | – | – | – | – | – |
| COC(=O)Oc1nn(C(=O)OC)c(=O)c2ccccc12 (tested in a mixture with another compound) | > 100 | > 100 | > 100 | > 100 | > 100 | > 100 | > 100 | > 100 | > 100 | > 100 | – | – | – | – | – | – | – | – | – | – |
| CC1OC(OC2C(OC3CCC4(C)C(CCC5(C)C4CC=C4C6CC(C)(C)CCC6(CO)C(O)CC45C)C3(C)C)OC(C(=O)O)C(OC3OC(COC4OC(CO)C(O)C(O)C4O)C(O)C(O)C3O)C2O)C(O)C(O)C1O (configuration not stated) | 4.45 | 3.53 | 17.5 | 15.4 | 8.42 | 28.5 | 23.5 | 20.1 | 9.19 | 23 | 1.73 | 1.5 | 7.1 | 3.09 | 2.35 | 13.5 | 7.79 | 8.57 | 2.46 | 11.2 |
| COc1cc(-c2cn(-c3ccc(Cl)cc3)c(=O)n2-c2ccccc2)cc(OC)c1OC | > 100 | > 38.5 | > 69.2 | > 100 | > 100 | > 100 | > 100 | > 100 | > 100 | 41.8 | > 56.3 | 3.35 | 30.6 | > 100 | 59.6 | 40.8 | > 35.4 | > 25.9 | > 100 | 5.51 |
| CC1=C(C(=O)Nc2cc(F)c(F)cc2F)C(c2cccc([N+](=O)[O-])c2)C(C(=O)Nc2ccccc2C(F)(F)F)=C(C)N1 (configuration not stated) | 36.5 | 37.1 | > 100 | 36.7 | 42 | 77.7 | 37.4 | 42.1 | 56.5 | 38.4 | – | – | – | – | – | – | – | – | – | – |
| O=[N+]([O-])c1ccc(N=Nc2c(O)[nH]c3ccc(Br)cc23)c([N+](=O)[O-])c1 | 23.4 | 4.77 | 45.7 | 15.5 | 26.2 | 18.9 | 9.84 | 8.04 | 11.4 | 11.5 | – | – | – | – | – | – | – | – | – | – |
| Fc1cccc(C=NC23CC4CC(CC(C4)C2)C3)c1 | > 100 | > 100 | > 100 | > 100 | > 100 | > 100 | > 100 | > 100 | > 100 | > 100 | – | – | – | – | – | – | – | – | – | – |
